Experimental data as given in patent US5169857A, “7-(polysubstituted pyridyl)-hept-6-endates useful for treating hyperproteinaemia, lipoproteinaemia or arteriosclerosis” (Bayer Aktiengesellschaft, priority 1988, dated 1992).

Key:
[1] = target: T1, HMG-CoA reductase (3-hydroxy-3-methyl-glutaryl coenzyme A reductase) (Rattus norvegicus, UniProt P51639); experiment: determination of HMG-CoA reductase enzyme activity (rat liver enzyme preparation); relative inhibitory potency vs mevinolin; conditions: relative inhibitory potency from IC50 values; IC50 of reference mevinolin set at 1; 20 min preincubation, 60 min at 37° C.
T1 sequence (P51639 1-887): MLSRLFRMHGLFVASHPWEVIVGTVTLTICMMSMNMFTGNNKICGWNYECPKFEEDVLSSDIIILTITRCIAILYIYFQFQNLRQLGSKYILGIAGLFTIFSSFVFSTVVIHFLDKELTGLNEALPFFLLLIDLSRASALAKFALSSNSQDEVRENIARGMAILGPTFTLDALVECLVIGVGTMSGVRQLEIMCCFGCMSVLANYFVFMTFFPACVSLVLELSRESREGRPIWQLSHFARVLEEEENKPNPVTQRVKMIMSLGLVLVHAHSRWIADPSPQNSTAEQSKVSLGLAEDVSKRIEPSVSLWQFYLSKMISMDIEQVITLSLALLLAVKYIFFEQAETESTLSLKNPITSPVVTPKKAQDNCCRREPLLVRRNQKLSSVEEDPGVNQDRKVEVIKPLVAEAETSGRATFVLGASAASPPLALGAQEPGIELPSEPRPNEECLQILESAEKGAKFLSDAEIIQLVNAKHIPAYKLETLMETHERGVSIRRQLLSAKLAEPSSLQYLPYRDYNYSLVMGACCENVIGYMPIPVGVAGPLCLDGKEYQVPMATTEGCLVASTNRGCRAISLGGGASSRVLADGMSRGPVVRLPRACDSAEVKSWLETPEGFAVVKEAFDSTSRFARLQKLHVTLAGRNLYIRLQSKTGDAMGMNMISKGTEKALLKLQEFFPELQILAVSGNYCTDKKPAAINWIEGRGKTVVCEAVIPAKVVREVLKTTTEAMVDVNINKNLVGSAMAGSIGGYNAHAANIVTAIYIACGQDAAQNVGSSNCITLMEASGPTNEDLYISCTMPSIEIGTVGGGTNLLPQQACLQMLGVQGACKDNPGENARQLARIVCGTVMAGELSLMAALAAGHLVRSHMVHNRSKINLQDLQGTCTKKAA
Procedure: Male Rico rats (body weight 300-400 g) were treated for 11 days with Altromin powdered feed, to which 40 g of colestyramine/kg of feed was added. After decapitation, the liver was removed from the animals and placed on ice. The livers were comminuted and homogenized 3 times in a Potter-Elvejem homogenizer in 3 volumes of 0.1 M saccharose, 0.05 M KCl, 0.04 M Kx Hy phosphate, 0.03 M ethylenediaminetetraacetic acid, 0.002 M dithiothreitol (SPE) buffer pH 7.2. The mixture was subsequently centrifuged for 15 minutes at 15,000* g and the sediment rejected. The supernatant was sedimented for 75 minutes at 100,000 g. The pellet is taken up in 1/4 volume of SPE buffer, homogenized once again and subsequently centrifuged again for 60 minutes at 100,000 g. The pellet is taken up using the 5-fold amount of its volume of SPE buffer, homogenized and frozen and stored at -78° C. (=enzyme solution).
For testing, the test compounds (or mevinolin as a reference substance) were dissolved in dimethylformamide with the addition of 5% by volume of 1 N NaOH and employed in the enzyme test in various concentrations using 10 μl. The test was started after preincubation of the compound with the enzyme at 37° C. for 20 minutes. The test batch was 0.380 ml and contained 4 μmol of glucose-6-phosphate, 1.1 mg of bovine serum albumin, 2.1 μmol of dithiothreitol, 0.35 μmol of NADP, 1 unit of glucose-6-phosphate dehyrogenase 35 μmol of KxHy phosphate PH 7.2, 20 μl of enzyme preparation and 56 nmol of 3x hydroxy-3-methyl-glutarylconenzyme A (glutaryl-3-^14 C) 100,000 dpm.
After incubation for 60 minutes at 37° C., the batch was centrifuged and 600 μl of the supernatant was applied to a 0.7×4 cm column filled with a 5-chloride 100-200 mesh (anion exchanger). It was washed with 2 ml of distilled water and 3 ml of aquasol were added to the runnings plus washing water and counted in the LKB scintillation counter. IC50 values were determined by intrapolation by plotting the percentage inhibition against the concentration of the compound in the test. To determine the relative inhibitory potency, the IC50 value of the reference substance mevinolin was set at 1 and compared with the simultaneously determined IC50 value of the test compound.

serum cholesterol = experiment: subchronic action on the blood cholesterol values of dogs in feeding experiments; assay type: in vivo; conditions: 8 mg/kg p.o. daily for 2 weeks; beagle dogs; colestyramine 4 g/100 g of feed throughout; vs values before administration
Procedure: The subchronic action of the compounds according to the invention on the blood cholesterol values of dogs was tested in feeding experiments of several weeks duration. For this, the substance to be investigated was given p.o. once daily in a capsule to healthy beagle dogs together with the feed over a period of time lasting several weeks. Colestyramine (4 g/100 g of feed) as the […] sequestrant was additionally admixed in the feed during the entire experimental period, i.e. before, during and after the administration period of the substances to be investigated. Venous blood was taken from the dogs twice weekly and the serum cholesterol was determined enzymatically using a commercial test kit. The serum cholesterol values during the administration period were compared with the serum cholesterol values before the administration period (controls).

| Rel. Activity (Mevinolin = 1) [1] | SMILES | lowering of the serum cholesterol (serum cholesterol) |
| --- | --- | --- |
| 20 | COCc1c(C2CC2)nc(C(C)C)c(/C=C/[C@@H](O)C[C@@H](O)CC(=O)OC)c1-c1ccc(F)cc1 (relative stereo) [Example 85, Methyl erythro-(E)-7-[6-cyclopropyl-2-isopropyl-4-(4-fluorophenyl)-5-methoxymethyl-pyrid-3-yl]-3,5-dihydroxy-hept-6-enoate] |  |
| 30 | CCC(C)(C)C(=O)OCc1c(C(C)C)nc(C(C)C)c(/C=C/[C@@H](O)C[C@@H](O)CC(=O)OC)c1-c1ccc(F)cc1 (relative stereo) [Example 70, Methyl erythro-(E)-7-[2,6-diisopropyl-5-(2,2-dimethyl-butyryloxymethyl)-4-(4-fluorophenyl)-pyrid-3-yl]-3,5-dihydroxy-hept-6-enoate] |  |
| 20 | COC(=O)C[C@H](O)C[C@H](O)/C=C/c1c(C(C)C)nc(C(C)C)c(-c2ccccc2)c1-c1ccc(F)cc1 (relative stereo) [Example 99] |  |
| 3 | COC(=O)C[C@H](O)C[C@H](O)/C=C/c1c(C(C)C)nc(C(C)C)c(CSCc2ccccc2)c1-c1ccc(F)cc1 (relative stereo) [Example 107, Methyl erythro-(E)-7-[2,6-diisopropyl-4-[4-fluorophenyl)-5-benzylthio-methyl-pyrid-3-yl]-3,5-dihydroxy-hept-6-enoate] |  |
| 4 | COC(=O)C[C@H](O)C[C@H](O)/C=C/c1c(C(C)C)nc(C(C)C)c(CN2CCOCC2)c1-c1ccc(F)cc1 (relative stereo) [Example 105, Methyl erythro-(E)-7-[2,6-diisopropyl-4-(4-fluorophenyl)-5-morpholinomethyl-pyrid-3-yl]-3,5-dihydroxy-hept-6-enoate] |  |
| 10 | COC(=O)C[C@H](O)C[C@H](O)/C=C/c1c(C(C)C)nc(C(C)C)c(COc2ccccc2)c1-c1ccc(F)cc1 (relative stereo) [Example 89, Methyl erythro-(E)-7-[2,6-diisopropyl-4-(4-fluorophenyl)-5-phenoxymethyl-pyrid-3-yl]-3,5-dihydroxy-hept-6-enoate] |  |
| 20 | COC(=O)C[C@H](O)C[C@H](O)/C=C/c1c(C(C)C)nc(C(C)C)c(COCc2ccccc2)c1-c1ccc(F)cc1 (relative stereo) [Example 17, Methyl erythro-(E)-7-[3-benzyloxymethyl-2,6-diisopropyl-4-(4-fluorophenyl)-pyrid-5-yl]-3,5-dihydroxy-hept-6-enoate] | about 66% |
| 30 | CCOC(=O)c1c(C(C)C)nc(C(C)C)c(/C=C/[C@@H](O)C[C@@H](O)CC(=O)OC)c1-c1ccc(F)cc1 (relative stereo) [Example 100, Methyl erythro-(E)-7-[2,6-diisopropyl-4-(4-fluorophenyl)-5-carboxyethyl-pyrid-3-y]-3,5-dihydroxy-hept-6-enoate] |  |
| 20 | COC(=O)C[C@H](O)C[C@H](O)/C=C/c1c(-c2ccc(F)cc2)nc(C)c(C#N)c1C(C)C (relative stereo) [Example 139, Methyl erythro-(E)-7-[5-cyano-2-(4-fluorophenyl)-4-isopropyl-6-methyl-pyrid-3-yl]-3,5-dihydroxy-hept-6-enoate] |  |

| SMILES | Rel. Activity (Mevinolin = 1) [1] | lowering of the serum cholesterol (serum cholesterol) |
| --- | --- | --- |
| COC(=O)C[C@H](O)C[C@H](O)/C=C/c1c(C(C)C)nc(C(C)C)c(COC(C)=O)c1-c1ccc(F)cc1 (relative stereo) [Example 72, methyl erythro-(E)-7-[3-acetoxymethyl-2,6-diisopropyl-4-(4-fluorophenyl)-pyrid-5-yl]-3,5-dihydroxy-hept-6-enoate] | 17 |  |
